Common to all, as to details: fomesafen 10 g ai ha^-1 to aerial tissue at approximately 10-leaf stage, visual assessment 5 days post application
Experiment [1] concerns Nicotiana tabacum var. Samsun, WT. Briefly: Herbicide tolerance test, wild-type tobacco. The experiment is classed as in vivo. On the procedure: 7.1 The binary vector pFT2 was transformed into Agrobacterium tumefaciens strain LBA 4404 using the freeze thaw method of transformation provided by Holsters et al., 1978. Tobacco transformation and whole plant regeneration was performed using Nicotiana tabacum var. Samsun according to standard protocols detailed by Bevan, 1984. Transformation events were selected on MS-media containing kanamycin. Other transformation methods may be employed for the transformation of other crops, such as soybean. Examples of such methods are referred to below.
9.1 Following tissue culture, kanamycin-resistant plantlets were transferred to 5 inch pots containing John Innes potting compost no. 3. The plants were allowed to develop to approximately the 10-leaf stage and fomesafen applied at 10 g ai ha^−1, formulated with non-ionic surfactant, to the aerial tissue using a track sprayer. Visual assessment of phytotoxicity/plant necrosis is performed 5 days post application.

Experiment [2] deals with transgenic tobacco line T82 3747 (pFT2: soybean GST 3.3 and homoglutathione synthetase). Briefly: Herbicide tolerance test, transgenic tobacco line T82 3747. It counts as in vivo, Nicotiana tabacum. The text has this: (§1) 6.1 Plants with increased tolerance to the herbicides acifluorfen and fomesafen were obtained by expression in the plant host of both the active soybean GST 3.3 and the homoglutathione synthetase to further increase levels of homoglutathione, required for the enhanced efficiency function of GST 3.3. 6.2 PCR, using oligonucleotide primers hGSH-Nco1 (SEQ ID No. 21) and hGSH-Kpn1 (SEQ ID No.22) was used to introduce a 5′ Nco1 site and 3′ Kpn1 site into the […]. The resulting PCR product was purified, sequenced, digested with Nco1 and Kpn1 and ligated into the vector pMJB2 (FIG. 1). The expression cassette, comprising the double enhanced CaMV35S promoter: Glucanase II leader, hGSH synthetase cDNA and nos terminator was then excised from pMJB2 using […] and ligated into the similarly digested binary vector pMOG800 (FIG. 3). 6.3 Oligonucleotide primers 3.6-Bgl II (SEQ ID No. 23) and 3.6 Nco1 (SEQ ID No.24) were used to introduce Nco1 and Bgl II sites at the 5′ and 3′ end of the GST 3.6 cDNA respectively. The resulting PCR product was purified, sequenced, digested with Nco1 and Bgl II and sub-cloned into the vector pMOG 1051 (FIG. 2). […] Orientation of the insert was determined by PCR. […]

The subject of experiment [3] is transgenic tobacco line T82 3740 (pFT2: soybean GST 3.3 and homoglutathione synthetase). The experiment is described as follows: Herbicide tolerance test, transgenic tobacco line T82 3740. The experiment is classed as in vivo, Nicotiana tabacum.
Text: as §1

As for `CS(=O)(=O)NC(=O)c1cc(Oc2ccc(C(F)(F)F)cc2Cl)ccc1[N+](=O)[O-]` [fomesafen], the “% damage” value in experiment [1] was 55%; in experiment [2] it was 5%; in experiment [3] it was 15%.

(Values after patent US7056715B1, “GST sequences from soybean and their use in the production of herbicide resistant plants” (Syngenta Limited, priority 1999, dated 2006).)
